System: S. aureus
Assay: Murine thigh-infection model (time kill, dosing regimen, PK/PD; Tables 31, 32);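 further: mouse thigh infection, bacterial counts per thigh after therapy, dose-response curves fitted with a maximum effect model to give static and 1 or 2 log kill exposures, mean of 4 thighs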
Conditions: for 1 log kill mg/kg / 2 log kill mg/kg: total dose over 6 days
Description: The murine thigh-infection model was used for all organisms throughout the various studies. In this well-established model, approximately 10^6 Cfu of the study organisms are injected into one or both thighs (in 0.1 ml) two hours before starting therapy. The number of organisms in the thigh at the start of therapy in the following studies varied from 10^7.15-7.59 cfu/thigh.
Each point represents the mean of 4 thighs. Five dose levels, ranging 16-fold were used. The dose levels used in the study against S. aureus ranged from 5 to 80 mg/kg.
In these studies, multiple dosing regimens varying the dose and dosage interval were administered intraperitoneally in 0.2 ml volumes to groups of mice for 144 h (6 days). The dosing intervals chosen were 12, 24, 36, and 72 hours. Five different doses (two-fold increases) were used. Study against S. aureus utilized total dose (mg/kg/6d) levels ranging from 30 to 480 mg/kg/6d. […] Each point represents the mean of 4 thighs.
Each of the dose-response curves was also mathematically characterized using a maximum effect model. […] From these parameters we could then calculate the dose required to produce a net bacteriostatic effect over the 144 hour treatment period as well as the doses necessary to produce a 1 and 2 log-reduction in organism burden.
We determined which PK/PD parameter correlated best with efficacy by relating the number of bacteria in thigh at the end of 144 hours of therapy with [1] the peak/MIC ratio, [2] the AUC/MIC ratio, and [3] the percentage of the dosing interval that serum levels exceed the MIC for each of the dosage regimens studied. The PK/PD parameter values for those doses not specifically studied were extrapolated from the values of the nearest studied doses. […] Each point represents the mean of four thighs. […] The data illustrated in these figures were also analyzed by the same maximum dose-response model mentioned above, except that the different PK/PD parameters were used in place of the dose. The R^2 represents the coefficient of determination observed for the relationship between efficacy and each PK/PD parameter.

CN[C@H]1C(=O)N[C@@H]2Cc3ccc(cc3)Oc3cc4cc(c3O[C@@H]3O[C@H](C(=O)O)[C@@H](O)[C@H](O)[C@H]3NC(=O)CCCCCCCCC(C)C)Oc3ccc(cc3Cl)[C@@H](O)[C@@H]3NC(=O)[C@H](NC(=O)[C@@H]4NC(=O)[C@@H](NC2=O)c2cc(cc(O)c2Cl)Oc2cc1ccc2O)c1ccc(O)c(c1)-c1c(O[C@H]2O[C@H](CO)[C@@H](O)[C@H](O)[C@@H]2O)cc(O)cc1[C@@H](C(=O)NCCCN(C)C)NC3=O [Dalbavancin]
2 Log Kill f24AUC/MIC (SA25923, q 24 h regimen): 289 | 2 Log Kill mg/kg/24 h (SA25923, q 24 h regimen): 60 mg/kg/24 h | Static Effect f24AUC/MBC (SA25923, q 24 h regimen): 52 | Static Effect f24AUC/MIC (SA25923, q 24 h regimen): 216 | Static Effect mg/kg/24 h (SA25923, q 24 h regimen): 42.7 mg/kg/24 h | 1 Log Kill f24AUC/MBC (SA25923, q 72 h regimen): 76.1 | 1 Log Kill f24AUC/MIC (SA25923, q 72 h regimen): 317 | 1 Log Kill mg/kg/24 h (SA25923, q 72 h regimen): 185 mg/kg/24 h | 2 Log Kill f24AUC/MBC (SA25923, q 72 h regimen): 88.1 | 2 Log Kill f24AUC/MIC (SA25923, q 72 h regimen): 367 | 2 Log Kill mg/kg/24 h (SA25923, q 72 h regimen): 214 mg/kg/24 h | Static Effect f24AUC/MBC (SA25923, q 72 h regimen): 66 | Static Effect f24AUC/MIC (SA25923, q 72 h regimen): 274 | Static Effect mg/kg/72 h (SA25923, q 72 h regimen): 160 mg/kg/72 h | 1 log kill mg/kg (SA29213, q 24 h): 267 mg/kg | 1 log kill mg/kg (SA29213, q 36 h): 36 mg/kg | 2 log kill mg/kg (SA29213, q 36 h): 122 mg/kg | 1 log kill mg/kg (SA29213, q 72 h): 31 mg/kg | 2 log kill mg/kg (SA29213, q 72 h): 128 mg/kg | Static Effect f24AUC/MBC (SA31005, q 24 h regimen): 242 | Static Effect f24AUC/MIC (SA31005, q 24 h regimen): 483 | Static Effect mg/kg/24 h (SA31005, q 24 h regimen): 49.3 mg/kg/24 h | 1 Log Kill f24AUC/MBC (SA31005, q 72 h regimen): 163 | 1 Log Kill f24AUC/MIC (SA31005, q 72 h regimen): 325 | 1 Log Kill mg/kg/24 h (SA31005, q 72 h regimen): 94.6 mg/kg/24 h | 2 Log Kill f24AUC/MBC (SA31005, q 72 h regimen): 217 | 2 Log Kill f24AUC/MIC (SA31005, q 72 h regimen): 364 | 2 Log Kill mg/kg/24 h (SA31005, q 72 h regimen): 127 mg/kg/24 h | Static Effect f24AUC/MBC (SA31005, q 72 h regimen): 112 | Static Effect f24AUC/MIC (SA31005, q 72 h regimen): 223 | Static Effect mg/kg/72 h (SA31005, q 72 h regimen): 67.7 mg/kg/72 h | 1 Log Kill f24AUC/MBC (SA33591, q 24 h regimen): 58.3 | 1 Log Kill f24AUC/MIC (SA33591, q 24 h regimen): 121 | 1 Log Kill mg/kg/24 h (SA33591, q 24 h regimen): 27.7 mg/kg/24 h | 2 Log Kill f24AUC/MBC (SA33591, q 24 h regimen): 74.3 | 2 Log Kill f24AUC/MIC (SA33591, q 24 h regimen): 157 | 2 Log Kill mg/kg/24 h (SA33591, q 24 h regimen): 33.5 mg/kg/24 h | Static Effect f24AUC/MBC (SA33591, q 24 h regimen): 46 | Static Effect f24AUC/MIC (SA33591, q 24 h regimen): 96.2 | Static Effect mg/kg/24 h (SA33591, q 24 h regimen): 22.3 mg/kg/24 h | 1 Log Kill f24AUC/MBC (SA33591, q 72 h regimen): 76.6 | 1 Log Kill f24AUC/MIC (SA33591, q 72 h regimen): 160 | 1 Log Kill mg/kg/24 h (SA33591, q 72 h regimen): 93 mg/kg/24 h | 2 Log Kill f24AUC/MBC (SA33591, q 72 h regimen): 94 | 2 Log Kill f24AUC/MIC (SA33591, q 72 h regimen): 195 | 2 Log Kill mg/kg/24 h (SA33591, q 72 h regimen): 114 mg/kg/24 h | Static Effect f24AUC/MBC (SA33591, q 72 h regimen): 59 | Static Effect f24AUC/MIC (SA33591, q 72 h regimen): 123 | Static Effect mg/kg/72 h (SA33591, q 72 h regimen): 74 mg/kg/72 h | 1 Log Kill f24AUC/MBC (SA307109, q 72 h regimen): 12.9 | 1 Log Kill f24AUC/MIC (SA307109, q 72 h regimen): 108 | 1 Log Kill mg/kg/24 h (SA307109, q 72 h regimen): 34 mg/kg/24 h | 2 Log Kill f24AUC/MBC (SA307109, q 72 h regimen): 14.6 | 2 Log Kill f24AUC/MIC (SA307109, q 72 h regimen): 121 | 2 Log Kill mg/kg/24 h (SA307109, q 72 h regimen): 37 mg/kg/24 h | Static Effect f24AUC/MBC (SA307109, q 72 h regimen): 11.3 | Static Effect f24AUC/MIC (SA307109, q 72 h regimen): 94 | Static Effect mg/kg/72 h (SA307109, q 72 h regimen): 31 mg/kg/72 h | 1 Log Kill f24AUC/MBC (SA Smith, q 24 h regimen): 119 | 1 Log Kill f24AUC/MIC (SA Smith, q 24 h regimen): 248 | 1 Log Kill mg/kg/24 h (SA Smith, q 24 h regimen): 50.7 mg/kg/24 h | 2 Log Kill f24AUC/MBC (SA Smith, q 24 h regimen): 173 | 2 Log Kill f24AUC/MIC (SA Smith, q 24 h regimen): 361 | 2 Log Kill mg/kg/24 h (SA Smith, q 24 h regimen): 73.5 mg/kg/24 h | Static Effect f24AUC/MBC (SA Smith, q 24 h regimen): 75 | Static Effect f24AUC/MIC (SA Smith, q 24 h regimen): 156 | Static Effect mg/kg/24 h (SA Smith, q 24 h regimen): 33.5 mg/kg/24 h | 1 Log Kill f24AUC/MBC (SA Smith, q 72 h regimen): 78.0 | 1 Log Kill f24AUC/MIC (SA Smith, q 72 h regimen): 163 | 1 Log Kill mg/kg/24 h (SA Smith, q 72 h regimen): 95 mg/kg/24 h | 2 Log Kill f24AUC/MBC (SA Smith, q 72 h regimen): 22 | 2 Log Kill f24AUC/MIC (SA Smith, q 72 h regimen): 254 | 2 Log Kill mg/kg/24 h (SA Smith, q 72 h regimen): 148 mg/kg/24 h | Static Effect f24AUC/MBC (SA Smith, q 72 h regimen): 46.1 | Static Effect f24AUC/MIC (SA Smith, q 72 h regimen): 96 | Static Effect mg/kg/72 h (SA Smith, q 72 h regimen): 59 mg/kg/72 h | drop in cfu (all strains, 6 day study): > 4 log10 | free drug 24 h AUC/MIC associated with a static effect (every 24 h dosing): 265±143 | free drug 24 h AUC/MIC associated with a static effect (every 72 h dosing): 160±67 | free drug AUC/MIC required for efficacy (over the 6 days): ~1000 | extent of killing (single doses, highest doses studied): > 2 log

Reference: patent US8143212B2 (Vicuron Pharmaceuticals Inc., priority 2002, dated 2012)
